From article PMC9571937, “Synthesis and Structure–Activity Relationship Studies of Pyrido [1,2-e]Purine-2,4(1H,3H)-Dione Derivatives Targeting Flavin-Dependent Thymidylate Synthase in Mycobacterium tuberculosis” (Molecules, 2022)

target: Mtb ThyX (Mycobacterium tuberculosis, UniProt P9WG57); assay: M. tuberculosis ThyX NADPH oxidase assay; format: biochemical; conditions: 50 μM, screening hits (Figure 1); read-out: % inhibition (ThyX)
Sequence (P9WG57 whole entry): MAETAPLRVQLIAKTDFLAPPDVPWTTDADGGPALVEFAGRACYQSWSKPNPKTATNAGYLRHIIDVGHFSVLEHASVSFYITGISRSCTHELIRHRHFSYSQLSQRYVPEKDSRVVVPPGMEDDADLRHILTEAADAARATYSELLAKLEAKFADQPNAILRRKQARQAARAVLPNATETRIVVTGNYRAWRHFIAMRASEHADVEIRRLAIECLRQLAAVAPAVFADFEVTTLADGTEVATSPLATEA

Q: `Cc1ccn2c(c1)nc1c(-c3ccc(OC(F)(F)F)cc3)nc(C(F)(F)F)nc12` [Compound 5] was tested. Which inhibition at 50 µM did it give?
A: 13.2%

Q: Which inhibition at 50 µM does the source give for `OB(O)c1ccc(Sc2nc(C(F)(F)F)nc3c2nc2ccccn23)cc1` [Compound 6] here?
A: 17.1%

same assay, conditions: 200 μM compound, NADPH oxidase assay, 50 µM FAD

Q: For “3-(p-Fluorophenyl)-8-hex-1-ynyl-1H-purino [9,8-a]pyridine-2,4-dione [Compound 20c]”, which “Inhibition % (Mtb ThyX)” value is on record?
A: 18.6%

Q: How did the “Inhibition % (Mtb ThyX)” value turn out when “3-(p-Fluorophenyl)-8-hept-1-ynyl-1H-purino [9,8-a]pyridine-2,4-dione [Compound 20d]” was run?
A: 0%

Q: How did the “Inhibition % (Mtb ThyX)” value turn out when “1-[[p-(Dimethoxyphosphorylmethyl)phenyl]methyl]-3-(4-fluorophenyl)purino [9,8-a]pyridine-2,4-dione [Compound 13f]” was run?
A: 5.6%

same assay, conditions: 200 μM compound, NADPH oxidase assay, 50 µM FAD; read-out: Inhibition % (Mtb ThyX)

Q: Which inhibition at 200 µM does the source give for `O=c1[nH]c2c(nc3cc(C#CCCc4ccccc4)ccn32)c(=O)n1-c1ccc(F)cc1` [Compound 20a, 3-(p-Fluorophenyl)-7-(4-phenylbut-1-ynyl)-1H-purino [9,8-a]pyridine-2,4-dione] here?
A: 32%

Q: For `O=c1[nH]c2c(nc3ccccn32)c(=O)n1-c1ccc(F)cc1F` [Compound 9i, 3-(2,4-Difluorophenyl)pyrido [1,2-e]purine-2,4(1H,3H)-dione], which inhibition at 200 µM is on record?
A: 6.6%

Q: For `O=c1[nH]c2c(nc3ccccn32)c(=O)n1Cc1ccc(C(F)(F)F)cc1` [Compound 10c, 3-(p-(Trifluoromethyl)benzyl)pyrido [1,2-e]purine-2,4(1H,3H)-dione], which inhibition at 200 µM is on record?
A: 20.7%

Q: `O=c1[nH]c2c(nc3ccccn32)c(=O)n1-c1cccc(F)c1` [Compound 9g, 3-(3-Fluorophenyl)pyrido [1,2-e]purine-2,4(1H,3H)-dione] was tested. Which inhibition at 200 µM did it give?
A: 12.8%

Q: Which inhibition at 200 µM does the source give for `O=c1c2nc3ccccn3c2n(Cc2ccc([N+](=O)[O-])cc2)c(=O)n1-c1ccc(F)cc1` [Compound 13d, 3-(p-Fluorophenyl)-1-[(p-nitrophenyl)methyl]purino [9,8-a]pyridine-2,4-dione] here?
A: 0%

Q: For `COc1ccc(-c2ccc3nc4c(=O)n(-c5ccc(F)cc5)c(=O)[nH]c4n3c2)cc1` [Compound 23c, 3-(p-Fluorophenyl)-8-(p-methoxyphenyl)-1H-purino [9,8-a]pyridine-2,4-dione], which inhibition at 200 µM is on record?
A: 35.4%

Q: For `N#Cc1ccc(Cn2c(=O)n(-c3ccc(F)cc3)c(=O)c3nc4ccccn4c32)cc1` [Compound 13c, 4-[[3-(p-Fluorophenyl)-2,4-dioxo-purino[9,8-a]pyridin-1-yl]methyl]benzonitrile], which inhibition at 200 µM is on record?
A: 26.5%

Q: For `CCCCCCNC(=O)NCC#Cc1ccn2c(c1)nc1c(=O)n(-c3ccc(F)cc3)c(=O)[nH]c12` [Compound 20g, 1-[3-[3-(p-Fluorophenyl)-2,4-dioxo-1H-purino [9,8-a]pyridin-7-yl]prop-2-ynyl]-3-hexyl-urea], which inhibition at 200 µM is on record?
A: 0%

Q: With `CCCCCCCC(=O)NCC#Cc1ccc2nc3c(=O)n(-c4ccc(F)cc4)c(=O)[nH]c3n2c1` [Compound 21f, N-[3-[3-(p-fluorophenyl)-2,4-dioxo-1H-purino [9,8-a]pyridin-8-yl]prop-2-ynyl]octanamide] as the molecule, how does the inhibition at 200 µM read?
A: 16.9%

Q: For `COC(=O)c1ccc(Cn2c(=O)n(-c3ccc(F)cc3)c(=O)c3nc4ccccn4c32)cc1` [Compound 13e, Methyl 4-[[3-(p-fluorophenyl)-2,4-dioxo-purino [9,8-a]pyridin-1-l]methyl]benzoate], which inhibition at 200 µM is on record?
A: 44.8%

Q: With `COc1ccc(-n2c(=O)[nH]c3c(nc4ccccn43)c2=O)cc1` [Compound 9f, 3-(p-Methoxyphenyl)pyrido [1,2-e]purine-2,4(1H,3H)-dione] as the molecule, how does the inhibition at 200 µM read?
A: 8.1%

Q: Which inhibition at 200 µM does the source give for `CCCCCCC#Cc1ccn2c(c1)nc1c(=O)n(-c3ccc(F)cc3)c(=O)[nH]c12` [Compound 20e, 3-(p-Fluorophenyl)-7-oct-1-ynyl-1H-purino [9,8-a]pyridine-2,4-dione] here?
A: 45.1%

Q: `O=c1[nH]c2c(nc3ccccn32)c(=O)n1Cc1ccc(F)cc1` [Compound 10b, 3-(p-Fluorobenzyl)pyrido [1,2-e]purine-2,4(1H,3H)-dione] was tested. Which inhibition at 200 µM did it give?
A: 21.2%

Q: With `O=c1[nH]c2c(nc3ccccn32)c(=O)n1-c1ccc(Br)cc1` [Compound 9c, 3-(4-Bromophenyl)pyrido [1,2-e]purine-2,4(1H,3H)-dione] as the molecule, how does the inhibition at 200 µM read?
A: 52.2%

Q: How did the inhibition at 200 µM turn out when `Cc1ccc(Cn2c(=O)n(-c3ccc(F)cc3)c(=O)c3nc4ccccn4c32)cc1` [Compound 13b, 3-(p-Fluorophenyl)-1-[(p-methylphenyl)methyl]purino[9,8-a]pyridine-2,4-dione] was run?
A: 10.9%

Q: `O=c1[nH]c2c(nc3ccc(-c4ccc(OC(F)(F)F)cc4)cn32)c(=O)n1-c1ccc(F)cc1` [Compound 23d, 3-(p-Fluorophenyl)-8-[p-(trifluoromethoxy)phenyl]-1H-purino [9,8-a]pyridine-2,4-dione] was tested. Which inhibition at 200 µM did it give?
A: 29.4%

Q: Which inhibition at 200 µM does the source give for `O=c1[nH]c2c(nc3ccccn32)c(=O)n1-c1ccc(C(F)(F)F)cc1` [Compound 9e, 3-(4-(Trifluoromethyl)phenyl)pyrido [1,2-e]purine-2,4(1H,3H)-dione] here?
A: 31.7%

Q: Which inhibition at 200 µM does the source give for `CCCCCC#Cc1ccc2nc3c(=O)n(-c4ccc(F)cc4)c(=O)[nH]c3n2c1` [Compound 21d, 3-(p-Fluorophenyl)-8-hept-1-ynyl-1H-purino [9,8-a]pyridine-2,4-dione] here?
A: 32.5%

Q: How did the inhibition at 200 µM turn out when `O=c1c2nc3ccccn3c2n(Cc2ccccc2)c(=O)n1-c1ccc(F)cc1` [Compound 13a, 1-Benzyl-3-(4-fluorophenyl)purino [9,8-a]pyridine-2,4-dione] was run?
A: 23.2%

Q: For `Cc1ccn2c(c1)nc1c(=O)n(-c3ccc(F)cc3)c(=O)[nH]c12` [Compound 18a, 3-(p-Fluorophenyl)-7-methylpyrido [1,2-e]purine-2,4(1H,3H)-dione], which inhibition at 200 µM is on record?
A: 45.8%

Q: Which inhibition at 200 µM does the source give for `CCCCCCNC(=O)NCC#Cc1ccc2nc3c(=O)n(-c4ccc(F)cc4)c(=O)[nH]c3n2c1` [Compound 21g, 1-[3-[3-(p-Fluorophenyl)-2,4-dioxo-1H-purino [9,8-a]pyridin-8-yl]prop-2-ynyl]-3-hexyl-urea] here?
A: 28.2%

Q: With `O=c1[nH]c2c(nc3ccccn32)c(=O)n1-c1ccc(F)c(F)c1` [Compound 9h, 3-(3,4-Difluorophenyl)pyrido [1,2-e]purine-2,4(1H,3H)-dione] as the molecule, how does the inhibition at 200 µM read?
A: 22.7%

Q: Which inhibition at 200 µM does the source give for `O=c1[nH]c2c(nc3cc(-c4ccccc4)ccn32)c(=O)n1-c1ccc(F)cc1` [Compound 22a, 3-(p-Fluorophenyl)-7-phenyl-1H-purino [9,8-a]pyridine-2,4-dione] here?
A: 20.7%

Q: `Cc1ccc(-n2c(=O)[nH]c3c(nc4ccccn43)c2=O)cc1C` [Compound 9j, 3-(3,4-Dimethylphenyl)pyrido [1,2-e]purine-2,4(1H,3H)-dione] was tested. Which inhibition at 200 µM did it give?
A: 19.9%

Q: `Cc1ccc(Cn2c(=O)[nH]c3c(nc4ccccn43)c2=O)cc1` [Compound 10d, 3-(p-Methylbenzyl)pyrido [1,2-e]purine-2,4(1H,3H)-dione] was tested. Which inhibition at 200 µM did it give?
A: 20.2%

Q: Which inhibition at 200 µM does the source give for `O=c1[nH]c2c(nc3ccc(-c4ccc(F)cc4)cn32)c(=O)n1-c1ccc(F)cc1` [Compound 23e, 3,8-Bis(p-Fluorophenyl)-1H-purino [9,8-a]pyridine-2,4-dione] here?
A: 43.1%

Q: For `O=c1[nH]c2c(nc3ccc(C#CCCc4ccccc4)cn32)c(=O)n1-c1ccc(F)cc1` [Compound 21a, 3-(p-Fluorophenyl)-8-(4-phenylbut-1-ynyl)-1H-purino [9,8-a]pyridine-2,4-dione], which inhibition at 200 µM is on record?
A: 69.1%

Q: With `Cc1ccc2nc3c(=O)n(-c4ccc(F)cc4)c(=O)[nH]c3n2c1` [Compound 18b, 3-(p-Fluorophenyl)-8-methylpyrido [1,2-e]purine-2,4(1H,3H)-dione] as the molecule, how does the inhibition at 200 µM read?
A: 13.2%

Q: `Cc1ccc(-c2ccc3nc4c(=O)n(-c5ccc(F)cc5)c(=O)[nH]c4n3c2)cc1` [Compound 23b, 3-(p-Fluorophenyl)-8-(p-tolyl)-1H-purino [9,8-a]pyridine-2,4-dione] was tested. Which inhibition at 200 µM did it give?
A: 44.4%

Q: For `CCCCC#Cc1ccc2nc3c(=O)n(-c4ccc(F)cc4)c(=O)[nH]c3n2c1` [Compound 21c, 3-(p-Fluorophenyl)-8-hex-1-ynyl-1H-purino [9,8-a]pyridine-2,4-dione], which inhibition at 200 µM is on record?
A: 0%

Q: Which inhibition at 200 µM does the source give for `O=c1[nH]c2c(nc3cc(Br)ccn32)c(=O)n1-c1ccc(F)cc1` [Compound 19a, 7-Bromo-3-(p-fluorophenyl)pyrido [1,2-e]purine-2,4(1H,3H)-dione] here?
A: 8.8%

Q: Which inhibition at 200 µM does the source give for `CCCc1ccc(C#Cc2ccn3c(c2)nc2c(=O)n(-c4ccc(F)cc4)c(=O)[nH]c23)cc1` [Compound 20b, 3-(p-Fluorophenyl)-7-[2-(4-propylphenyl)ethynyl]-1H-purino [9,8-a]pyridine-2,4-dione] here?
A: 0%

Q: For `COc1ccc(-c2ccn3c(c2)nc2c(=O)n(-c4ccc(F)cc4)c(=O)[nH]c23)cc1` [Compound 22c, 3-(p-Fluorophenyl)-7-(p-methoxyphenyl)-1H-purino [9,8-a]pyridine-2,4-dione], which inhibition at 200 µM is on record?
A: ≤ 28%

Q: With `CCCCCCCC(=O)NCC#Cc1ccn2c(c1)nc1c(=O)n(-c3ccc(F)cc3)c(=O)[nH]c12` [Compound 20f, N-[3-[3-(p-fluorophenyl)-2,4-dioxo-1H-purino [9,8-a]pyridin-7-yl]prop-2-ynyl]octanamide] as the molecule, how does the inhibition at 200 µM read?
A: 18.8%

Q: `O=c1[nH]c2c(nc3cc(-c4ccc(F)cc4)ccn32)c(=O)n1-c1ccc(F)cc1` [Compound 22e, 3,7-Bis(p-fluorophenyl)-1H-purino [9,8-a]pyridine-2,4-dione] was tested. Which inhibition at 200 µM did it give?
A: ≤ 28%

Q: How did the inhibition at 200 µM turn out when `O=c1c2nc3ccccn3c2[nH]c(=S)n1-c1ccc(F)cc1` [Compound 11, 3-(4-Fluorophenyl)-2-thioxo-2,3-dihydropyrido [1,2-e]purin-4(1H)-one] was run?
A: 19.8%

Q: How did the inhibition at 200 µM turn out when `O=c1[nH]c2c(nc3ccc(Br)cn32)c(=O)n1-c1ccc(F)cc1` [Compound 19b, 8-Bromo-3-(p-fluorophenyl)pyrido [1,2-e]purine-2,4(1H,3H)-dione] was run?
A: 5.4%

Q: How did the inhibition at 200 µM turn out when `Cc1ccc(-c2ccn3c(c2)nc2c(=O)n(-c4ccc(F)cc4)c(=O)[nH]c23)cc1` [Compound 22b, 3-(p-Fluorophenyl)-7-(p-tolyl)-1H-purino [9,8-a]pyridine-2,4-dione] was run?
A: 45.7%

same assay, conditions: 200 µM, screening of in-house compound libraries; read-out: ThyX inhibitory effect

Q: For `Cc1ccn2c(c1)nc1c(-c3ccc(OC(F)(F)F)cc3)nc(C(F)(F)F)nc12` [Compound 5], which inhibition at 200 µM is on record?
A: 23.1%

Q: How did the inhibition at 200 µM turn out when `OB(O)c1ccc(Sc2nc(C(F)(F)F)nc3c2nc2ccccn23)cc1` [Compound 6] was run?
A: 33.2%
